Experimental data: publication PMC12471299, “Secondary Metabolites of the Marine Sponge-Derived Fungus Aspergillus subramanianii 1901NT-1.40.2 and Their Antimicrobial and Anticancer Activities” (Marine Drugs, 2025)
Like-named read-outs stand apart in the source and are kept apart here.

Key:
[1] = system: Staphylococcus aureus ATCC 21027; test: Antimicrobial assay, growth inhibition (optical density); type: cell-based; conditions: Staphylococcus aureus
Protocol: (§1) The Gram-positive bacterial Staphylococcus aureus ATCC 21027, Gram-negative bacterial Escherichia coli VKPM (B-7935), and yeast-like fungal Candida albicans KMM 455 strains were fermented on solid medium Mueller Hinton broth with agar (16.0 g/L) in a Petri dish at 37 °C for 24 h. The antimicrobial activity of the compound was tested at concentrations ranging from 100 µM and lower. The effect of the compound on bacterial growth was estimated as described by. Gentamicin and amphotericin B were used as positive controls against S. aureus, E. coli, and C. albicans, and a 1% dimethyl sulfoxide (DMSO) solution in PBS was used as a negative control. The optical density of the bacterial suspension after 18 h was measured at λ = 620 nm. The effect of the compound on biofilm formation for 18 h was tested using MTT reagent (Sigma-Aldrich, St. Louis, MO, USA) in accordance with. The optical density of the obtained solution was measured at λ = 570 nm. A Multiskan FS spectrophotometer (Thermo Scientific Inc., Beverly, MA, USA) was used for both assays. The results were calculated as percentages of the control data and presented as minimal concentrations reduced by 50% of growth or biofilm formation (MIC50).

[2] = system: Escherichia coli VKPM (B-7935); test: as above; type: cell-based
Protocol: as §1

Candida albicans KMM 455 [3] = test: as above; type: cell-based
Protocol: as §1

[4] = system: Staphylococcus aureus ATCC 21027; test: Biofilm formation assay (MTT); type: cell-based
Protocol: as §1

[5] = system: Escherichia coli VKPM (B-7935); test: Biofilm formation assay (MTT); type: cell-based
Protocol: as §1

Candida albicans KMM 455 [6] = test: Biofilm formation assay (MTT); type: cell-based
Protocol: as §1

H9c2 cardiomyocytes = test: Cell viability assay (MTT); type: cell-based, rat
Text: (§2) Rat cardiomyocyte H9c2 cells were kindly provided by Prof. Dr. Gunhild von Amsberg from the Martini-Klinik Prostate Cancer Center, University Hospital Hamburg-Eppendorf, Hamburg, Germany. The human HaCaT keratinocyte cell line was kindly provided by Prof. N. Fusenig (Cancer Research Centre, Heidelberg, Germany). Non-cancerous human breast epithelial MCF-10A cells were kindly provided by Dr. Irina Zhitnyak (N. N. Blokhin National Medical Research Center of Oncology, Moscow, Russia). Human breast cancer MCF-7 HTB-22 and MDA-MB-231 cells were obtained from the ATTC (Manassas, VA, USA).
(§3) H9c2 and HaCaT cells were cultured in DMEM with 10% fetal bovine serum and 1% penicillin/streptomycin (BioloT, St. Petersburg, Russia). MCF-7 and MDA-MB-231 cells were cultured in MEM (BioloT, St. Petersburg, Russia) with 10% fetal bovine serum (FBS) and 1% penicillin/streptomycin (BioloT, St. Petersburg, Russia). MCF 10A cells were cultured in DMEM F12 medium (BioloT, St. Petersburg, Russia) supplemented with 20% FBS, 20 ng/mL hrEGF (Sci-Store, Moscow, Russia), and 1% penicillin/streptomycin (BioloT, St. Petersburg, Russia). All cells were cultured at 37 °C in a humidified atmosphere containing 5% CO2.
(§4) H9c2 cells were seeded at a concentration of 3 × 10^3 cells/well. MCF-10A, MCF-7, and MDA-MB-231 cells were seeded at 5 × 10^3 cells/well, and HaCaT cells were seeded at 1 × 10^4 cells/well. The experiments were initiated after 24 h.
(§5) Compounds at concentrations up to 100 µM were added to the wells for 24h or 48 h, and the viability of the cells was measured using an MTT (3-(4,5-dimethylthiazol-2-yl)-2,5-diphenyltetrazolium bromide) assay, which was performed according to the manufacturer’s instructions (Sigma-Aldrich, Munich, Germany). […] DMSO was used as a control. The results are presented as percentages of the control data.

[7] = Cell viability assay (MTT); type: cell-based, rat; conditions: rat, H9c2 cardiomyocytes, read-out: Cytotoxicity IC50
Text: as §2, §3, §4, §5

[8] = system: MCF-10A breast epithelial cells; test: Cell viability assay (MTT); type: cell-based, human; conditions: MCF10A
Text: as §2, §3, §4, §5

[9] = Cell viability assay (MTT); type: cell-based, human; conditions: human, read-out: Cytotoxicity IC50
Text: as §2, §3, §4, §5

[10] = system: MCF-7 breast cancer cells; test: Cell viability assay (MTT); type: cell-based, human
Text: as §2, §3, §4, §5

HaCaT keratinocytes = test: Cell viability assay (MTT); type: cell-based, human
Text: as §2, §3, §4, §5

[11] = system: MDA-MB-231 breast cancer cells; test: Cell viability assay (MTT); type: cell-based, human
Text: as §2, §3, §4, §5

MIC50 ([1]; ATCC21027, 18 h, S. aureus, 18 h): > 100 µM
MIC50 ([2]; Escherichia coli, 18 h, E. coli): > 100 µM
MIC50 (Candida albicans KMM 455 [3]; Candida albicans, KMM455, 18 h, C. albicans, 18 h): > 100 µM
Biofilm formation, MIC50 ([4]; S. aureus, 18 h): >100 µM
Biofilm formation, MIC50 ([5]; E. coli, 18 h): >100 µM
Biofilm formation, MIC50 (Candida albicans KMM 455 [6]; C. albicans, 18 h): >100 µM
Structure (SMILES): COc1c(OC)c(-c2c[nH]c3ccccc23)c(OC)c(OC)c1-c1c[nH]c2ccccc12 [Compound 7, asterriquinol D dimethyl ether]
inhibition at 100 µM ([1]; ATCC21027, at 100 µM, read-out: inhibition of S. aureus growth): 42.2 ± 2.07%
effect on E. coli growth ([2]; at / up to 100 µM): did not affect
effect on C. albicans growth (Candida albicans KMM 455 [3]; at / up to 100 µM): did not affect
effect on S. aureus biofilm formation ([4]; at / up to 100 µM): did not affect
effect on E. coli biofilm formation ([5]; at / up to 100 µM): did not affect
effect on C. albicans biofilm formation (Candida albicans KMM 455 [6]; at 100 µM): did not affect
cell viability (H9c2 cardiomyocytes; H9c2, 24 h, 1.0 µM): 101.5 ± 1.3 % of control
cell viability (H9c2 cardiomyocytes; H9c2, 24 h, 10.0 µM): 76.9 ± 2.8 % of control
cell viability (H9c2 cardiomyocytes; H9c2, 24 h, 100.0 µM): 59.0 ± 5.3 % of control
cell viability (H9c2 cardiomyocytes; H9c2, 48 h, 1.0 µM): 102.8 ± 7.6 % of control
cell viability (H9c2 cardiomyocytes; H9c2, 48 h, 10.0 µM): 76.3 ± 3.9 % of control
cell viability (H9c2 cardiomyocytes; H9c2, 48 h, 100.0 µM): 32.8 ± 1.4 % of control
IC50 at 24 h ([7]; H9c2, 24 h): > 100 µM
IC50 at 48 h ([7]; H9c2, 48 h): 69.9 ± 2.3 µM
cell viability ([8]; 24 h, 1.0 µM): 102.7 ± 5.1 % of control
cell viability ([8]; 24 h, 10.0 µM): 100.2 ± 3.8 % of control
cell viability ([8]; 24 h, 100.0 µM): 59.6 ±2.1 % of control
cell viability ([8]; 48 h, 1.0 µM): 97.7 ± 1.4 % of control
cell viability ([8]; 48 h, 10.0 µM): 93.1 ± 3.6 % of control
cell viability ([8]; 48 h, 100.0 µM): 78.9 ± 5.7 % of control
IC50 at 24 h ([9]; HaCaT keratinocytes, 24 h): > 100 µM
IC50 at 48 h ([9]; HaCaT keratinocytes, 48 h): 80.5 ± 1.8 µM
IC50 at 24 h ([9]; MCF-7 breast cancer cells, MCF-7, 24 h): > 100 µM
IC50 at 48 h ([9]; MCF-7 breast cancer cells, MCF-7, 48 h): 79.1 ± 2.4 µM
IC50 at 24 h ([9]; MCF-10A breast epithelial cells, MCF10A, 24 h): > 100 µM
IC50 at 48 h ([9]; MCF-10A breast epithelial cells, MCF10A, 48 h): > 100 µM
IC50 at 24 h ([9]; MDA-MB-231 breast cancer cells, MDA-MB-231, 24 h): > 100 µM
IC50 at 48 h ([9]; MDA-MB-231 breast cancer cells, MDA-MB-231, 48 h): 85.1 ± 1.5 µM
cell viability ([10]; MCF-7, 24 h, 1.0 µM): 99.4 ± 4.4 % of control
cell viability ([10]; MCF-7, 24 h, 10.0 µM): 65.4 ± 2.9 % of control
cell viability ([10]; MCF-7, 24 h, 100.0 µM): 56.0 ± 4.5 % of control
cell viability ([10]; MCF-7, 48 h, 1.0 µM): 91.5 ± 6.3 % of control
cell viability ([10]; MCF-7, 48 h, 10.0 µM): 70.0 ± 5.2 % of control
cell viability ([10]; MCF-7, 48 h, 100.0 µM): 43.9 ± 3.5 % of control
cell viability (HaCaT keratinocytes; 24 h, 1.0 µM): 100.7 ± 3.8 % of control
cell viability (HaCaT keratinocytes; 24 h, 10.0 µM): 85.6 ± 7.6 % of control
cell viability (HaCaT keratinocytes; 24 h, 100.0 µM): 64.1 ± 3.2 % of control
cell viability (HaCaT keratinocytes; 48 h, 1.0 µM): 94.2 ± 8.7 % of control
cell viability (HaCaT keratinocytes; 48 h, 10.0 µM): 78.1 ± 6.4 % of control
cell viability (HaCaT keratinocytes; 48 h, 100.0 µM): 40.1 ± 2.9 % of control
cell viability ([11]; MDA-MB-231, 24 h, 1.0 µM): 102.7 ± 1.6 % of control
cell viability ([11]; MDA-MB-231, 24 h, 10.0 µM): 75.9 ± 4.8 % of control
cell viability ([11]; MDA-MB-231, 24 h, 100.0 µM): 53.6 ± 4.2 % of control
cell viability ([11]; MDA-MB-231, 48 h, 1.0 µM): 99.8 ± 3.7 % of control
cell viability ([11]; MDA-MB-231, 48 h, 10.0 µM): 82.9 ± 6.3 % of control
cell viability ([11]; MDA-MB-231, 48 h, 100.0 µM): 43.5 ± 2.5 % of control
